Among the data in PubChem BioAssay AID1918931 (Molecular Pharmacology Branch, DTP, NCI, 2023) are IC50 and viability, T/C values, retold here.

Where “and” joins values, the source holds several entries; their conditions need not be identical. Equal entries are not always repeated. Where only a bound is given, the exact number is not on record here.

In this test the test system is 138582-337-R-J1-PDC complex spheroid viability. Put plainly: Anticancer human tumor 138582-337-R-J1-PDC patient-derived Merkel cell tumor cell line growth inhibition. The conditions noted are these: for viability, T/C: stronger effect = lower value. Put shortly: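 Multicellular complex spheroids of tumor cells with human endothelial cells (HUVEC) and mesenchymal stem cells; the LSD1 inhibitor iadademstat was combined with standard-of-care or investigational agents. Top concentration at or near clinical Cmax, half-log dilutions; final DMSO ≤0.25%.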
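Note: spheroids exposed to agents for 7 days.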
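Throughout, for viability, T/C: 100% = DMSO vehicle control viability.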

What is called IC50 is the midpoint of a concentration-inhibition curve. The viability, T/C is the result in the treated group divided by that in the control group, in per cent. Turning to `COc1cc(Nc2ncc3c(n2)-c2ccc(Cl)cc2C(c2c(F)cccc2OC)=NC3)ccc1C(=O)O` + NC1CCC(NC2CC2c2ccccc2)CC1, the IC50 was more than 1000 nM (curve of first compound, second compound 0.1 µM); more than 1000 nM (curve of first compound, second compound 0.316 µM); more than 1000 nM (curve of first compound, second compound 1 µM); more than 1000 nM (curve of first compound, second compound 3.16 µM); more than 1000 nM (curve of first compound, second compound 10 µM). Further, the viability, T/C is 89.6% (second compound 0.1 µM, first compound 0.00316 µM); 97.8% (second compound 0.1 µM, first compound 0.01 µM); 85.2% (second compound 0.1 µM, first compound 0.0316 µM); 83.3% (second compound 0.1 µM, first compound 0.1 µM); 93% (second compound 0.1 µM, first compound 0.316 µM); 88.3% (second compound 0.1 µM, first compound 1 µM). Also, the viability, T/C was 99.2% (second compound 0.316 µM, first compound 0.00316 µM); 91.4% (second compound 0.316 µM, first compound 0.01 µM); 91.4% (second compound 0.316 µM, first compound 0.0316 µM); 86.8% (second compound 0.316 µM, first compound 0.1 µM); 98.2% (second compound 0.316 µM, first compound 0.316 µM); 90.1% (second compound 0.316 µM, first compound 1 µM). Moreover, the viability, T/C reads like this: (second compound 1 µM, first compound 0.00316 µM) 89.6%; (second compound 1 µM, first compound 0.01 µM) 93.3%; (second compound 1 µM, first compound 0.0316 µM) 88.1%; (second compound 1 µM, first compound 0.1 µM) 98%; (second compound 1 µM, first compound 0.316 µM) 96.3%; (second compound 1 µM, first compound 1 µM) 84.1%. The viability, T/C reads like this: (second compound 3.16 µM, first compound 0.00316 µM) 98.2%; (second compound 3.16 µM, first compound 0.01 µM) 94.9%; (second compound 3.16 µM, first compound 0.0316 µM) 87.1%; (second compound 3.16 µM, first compound 0.1 µM) 78.9%; (second compound 3.16 µM, first compound 0.316 µM) 74.7%; (second compound 3.16 µM, first compound 1 µM) 83%. The viability, T/C is 99.9% (second compound 10 µM, first compound 0.00316 µM); 98.6% (second compound 10 µM, first compound 0.01 µM); 90.5% (second compound 10 µM, first compound 0.0316 µM); 76.9% (second compound 10 µM, first compound 0.1 µM); 87.2% (second compound 10 µM, first compound 0.316 µM); 74.2% (second compound 10 µM, first compound 1 µM).

In the case of `NC1CCC(NC2CC2c2ccccc2)CC1` (configuration not stated), where the note is “compound 0.316 µM”, the viability, T/C is 95.6% and 95.3%. In addition, where the note is “compound alone, run of 01/24/2022”, the IC50 was more than 10000 nM.
